Patent US20230220021A1, “CYCLIC PEPTIDE INHIBITORS OF PSD-95 AND USES THEREOF” (University of Copenhagen, priority 2020, published 2023)
Where a SMILES comes first, the peptide text is derived from it. [ ]: non-standard residue; d: D form.

Legend:
PSD-95-PDZ2 [1] = target: T1, PSD-95-PDZ2 (Homo sapiens, UniProt P78352); test: Fluorescence polarization (FP) competition assay against cyclic nNOS TAMRA probe; type: binding; details: for Relative Ki (Ki mut/Ki WT): FP inhibition constant normalized to WT value; for Ki: cyclic nNOS TAMRA probe, mean of triplicates, N.B. = not binding, read-out: Ki
T1 construct: 7xHis (N); made in house; host or cells: Escherichia coli B21 pLys (for the mutants, 'as previously described')

PSD-95-PDZ2 [2] = target: T2, PSD-95-PDZ2 (Homo sapiens, UniProt P78352, V178C); test: SPOT peptide array screening with TAMRA labelled PSD-95-PDZ2; type: binding; details: SPOT array, TAMRA labelled PSD-95-PDZ2-V178C, normalized to WT
T2 construct: screened with the TAMRA labelled PSD-95-PDZ2-V178C domain; 7xHis (N); made in house
Protocol: SPOT peptide array synthesis. To generate the cyclic nNOSβ-hairpin arrays, we used the Intavis MultiPep spotter (Intavis Bioanalytical instruments). The membranes employed in this assay were SynthoPlan APEG CE (standard amino-modified acid stable sellulose membrane with a PEG-spacer), 10×15 cm with a loading of 400 nmol cm^−2. Solutions of 0.3 M Fmoc-AA-OH and 0.3 M Oxyma Pure were prepared in N-methyl-2-pyrrolidone (NMP). The activator solution consisted of 0.3 M DIC and 0.3 M of 2,4,6-trimethylpyridine (Collidine) in NMP. The capping solution consisted of a solution of 1 M acetic anhydride and 0.05 M of 4-dimethylaminopyridine (DMAP) in NMP. The deprotection solution consisted of 20% piperidine in NMP. AA couplings were performed 1 h,4 times. Deprotection of the Fmoc groups was performed 15min,2 times. Membrane washing between couplings or deprotections was performed with NMP and ethanol. Elongation of peptides in cellulose membrane was started by coupling first the Fmoc-PEG(9)-OH (Iris Biotech) and the subsequent mixture of Fmoc-Gly-OH (25%) and Boc-Gly-OH (75%) to lower the total loading of the membrane. Afterwards, the resin was capped with the capping solution and extensively washed and soaked in bromophenol blue (BPB) as a quality control to reveal the SPOTS with a functional amino group. Then, we coupled the quasi-orthogonal group Fmoc-Glu-PP, and carried out the rest of the synthesis until peptide completion. The cellulose bound linear peptides were finally treated with a solution of 95% DCM, 3% TIPS and 2% TFA 3 times, 20 min. to remove the quasi-orthogonal group. Afterwards, the membrane was washed 5 times with DCM and neutralized with 5% DIPEA in DCM. The membrane was then washed 5 more times with DCM, 5 times with NMP and cyclized with 0.3M PyAOP and 0.3M of DIPEA in DMF for 3 h or overnight. Finally, the membrane was dried with DCM and the side-chain protecting groups were cleaved with the standard deprotection cocktail (95% TFA, 2.5% H2O and 2.5% TIPS) or with reagent K [TFA 82.5%, phenol 5%, H2O 5%, thioanisole 5% and 1,2-ethanedithiol (EDT) 2.5%] for 3 h.
SPOT membrane screening. Membranes were incubated with PBS pH 7.2+0.5% bovine serum albumin (BSA) for 1 h. After the incubation period, the membrane was dried and scanned with an Amershan Typhoon scanner, at 400V, Cy3 wavelength (532 nm). A TIF file of the screening and a file with the blank values were generated using the Image Quant software. Afterwards, a solution of 50 nM of TAMRA labelled PSD-95-PDZ2 domain was prepared in PBS pH 7.2+0.5% BSA and was added to the membrane. The membrane was left incubating in a Polymax 1040 rocking table for 1 h protected from the light. Passed the incubation time, the excess of labelled protein was removed by washing the membrane 3 times with PBS+0.5% BSA. Finally, the membrane fluorescence values were measured with the Amershan Typhoon scanner at 400V, Cy3 wavelength (532 nm). Using the Image Quant software, the TIF image of the screening and a file with the fluorescence values of the peptides with the TAMRA labelled PSD-95-PDZ2 were generated. The blank was then subtracted from the fluorescence values of the peptides screened against the TAMRA labelled PSD-95-PDZ2.
A deep mutational scan was performed on the WT scaffold, exchanging each AA to the remaining 19 L-AAs. Each array contained three copies of the individual peptides as technical replicates. Additionally, three controls were included in the design: the cyclic nNOS β-hairpin WT control (positive control), a linear nNOS peptide (cyclization control) and a cyclic nNOS β-hairpin with a F111V substitution (negative control previously tested in FP competition assays). For array screening, a mutation in PSD-95-PDZ2 residue V178 (PSD-95-PDZ2-V178C) was introduced, which was subsequently labelled with TAMRA maleimide. […]

Row | SMILES | Relative Ki (Ki mut/Ki WT) (PSD-95-PDZ2 [1]) | Normalized SPOT fluorescence (Mut/WT) (PSD-95-PDZ2 [2]) | Ki (PSD-95-PDZ2 [1]; FP competition) [µM] | fold improved binding affinity (PSD-95-PDZ2 [1]; FP competition, N-methylation) [fold]
1 | CC[C@H](C)[C@@H]1NC(=O)[C@H]([C@@H](C)O)NC(=O)[C@H](CCCCN)NC(=O)[C@@H]2CCCN2C(=O)[C@H](C)NC(=O)CNC(=O)[C@H](CC(=O)O)NC(=O)CNC(=O)[C@H]([C@@H](C)O)NC(=O)[C@H](Cc2ccccc2)NC(=O)[C@H]([C@@H](C)O)NC(=O)[C@H]([C@@H](C)O)NC(=O)[C@H](CCC(=O)O)NC(=O)[C@H](CC(C)C)NC(=O)[C@H](Cc2c[nH]cn2)NC(=O)[C@H]([C@@H](C)O)NC(=O)[C@H](CCC(N)=O)NC(=O)CNC(=O)[C@H]2CCCN2C(=O)[C@H](CCC(N)=O)NC(=O)[C@H]([C@@H](C)O)NC(=O)[C@H](C(C)C)NC(=O)[C@H](CCCNC(=N)N)NC1=O [compound 66] (cyclo(THLETTFTGDGAPKTIRVTQ[dP]GQ)) | 0.83 | 1.30 |  | 
2 | CC[C@H](C)[C@@H]1NC(=O)[C@H]([C@@H](C)O)NC(=O)[C@H](CCCCN)NC(=O)[C@@H]2CCCN2C(=O)[C@H]([C@@H](C)O)NC(=O)CNC(=O)[C@H](CC(=O)O)NC(=O)CNC(=O)[C@H](Cc2c[nH]cn2)NC(=O)[C@H](Cc2ccccc2)NC(=O)[C@H]([C@@H](C)O)NC(=O)[C@H]([C@@H](C)O)NC(=O)[C@H](CCC(=O)O)NC(=O)[C@H](CC(C)C)NC(=O)[C@H](Cc2c[nH]cn2)NC(=O)[C@H]([C@@H](C)O)NC(=O)[C@H](CCC(N)=O)NC(=O)CNC(=O)[C@H]2CCCN2C(=O)[C@H](CCC(N)=O)NC(=O)[C@H]([C@@H](C)O)NC(=O)[C@H](C(C)C)NC(=O)[C@H](CCCNC(=N)N)NC1=O [compound 20] (cyclo(THLETTFHGDGTPKTIRVTQ[dP]GQ)) | 1.32 | 1.49 | 1.98 | 
3 | CC[C@H](C)[C@@H]1NC(=O)[C@H]([C@@H](C)O)NC(=O)[C@H](CCCCN)NC(=O)[C@H](C)NC(=O)[C@H]([C@@H](C)O)NC(=O)CNC(=O)[C@H](CC(=O)O)NC(=O)CNC(=O)[C@H]([C@@H](C)O)NC(=O)[C@H](Cc2ccccc2)NC(=O)[C@H]([C@@H](C)O)NC(=O)[C@H]([C@@H](C)O)NC(=O)[C@H](CCC(=O)O)NC(=O)[C@H](CC(C)C)NC(=O)[C@H](Cc2c[nH]cn2)NC(=O)[C@H]([C@@H](C)O)NC(=O)[C@H](CCC(N)=O)NC(=O)CNC(=O)[C@H]2CCCN2C(=O)[C@H](CCC(N)=O)NC(=O)[C@H]([C@@H](C)O)NC(=O)[C@H](C(C)C)NC(=O)[C@H](CCCNC(=N)N)NC1=O [compound 67] (cyclo(THLETTFTGDGTAKTIRVTQ[dP]GQ)) | 1.07 | 0.93 |  | 
4 | CC[C@H](C)[C@@H]1NC(=O)[C@H]([C@@H](C)O)NC(=O)[C@H](CCCCN)NC(=O)[C@@H]2CCCN2C(=O)[C@H]([C@@H](C)O)NC(=O)CNC(=O)[C@H](CC(=O)O)NC(=O)CNC(=O)[C@H]([C@@H](C)O)NC(=O)[C@H](C(C)C)NC(=O)[C@H]([C@@H](C)O)NC(=O)[C@H]([C@@H](C)O)NC(=O)[C@H](CCC(=O)O)NC(=O)[C@H](CC(C)C)NC(=O)[C@H](Cc2c[nH]cn2)NC(=O)[C@H]([C@@H](C)O)NC(=O)[C@H](CCC(N)=O)NC(=O)CNC(=O)[C@H]2CCCN2C(=O)[C@H](CCC(N)=O)NC(=O)[C@H]([C@@H](C)O)NC(=O)[C@H](C(C)C)NC(=O)[C@H](CCCNC(=N)N)NC1=O [compound 21] (cyclo(THLETTVTGDGTPKTIRVTQ[dP]GQ)) | 51.60 | 0.05 |  | 
5 | CC[C@H](C)[C@@H]1NC(=O)[C@H]([C@@H](C)O)NC(=O)[C@H](CCCCN)NC(=O)[C@@H]2CCCN2C(=O)[C@H]([C@@H](C)O)NC(=O)CNC(=O)[C@H](CC(=O)O)NC(=O)CNC(=O)[C@H]([C@@H](C)O)NC(=O)[C@H](Cc2ccccc2)NC(=O)[C@H]([C@@H](C)O)NC(=O)[C@H]([C@@H](C)O)NC(=O)[C@H](CCC(=O)O)NC(=O)[C@H](CC(C)C)NC(=O)[C@H](Cc2c[nH]cn2)NC(=O)[C@H](Cc2ccc(O)cc2)NC(=O)[C@H](CCC(N)=O)NC(=O)CNC(=O)[C@H]2CCCN2C(=O)[C@H](CCC(N)=O)NC(=O)[C@H]([C@@H](C)O)NC(=O)[C@H](C(C)C)NC(=O)[C@H](CCCNC(=N)N)NC1=O [compound 24] (cyclo(YHLETTFTGDGTPKTIRVTQ[dP]GQ)) | 0.98 | 1.32 | 1.47 | 
6 | CC[C@H](C)[C@@H]1NC(=O)[C@H]([C@@H](C)O)NC(=O)[C@H](CCCCN)NC(=O)[C@@H]2CCCN2C(=O)[C@H]([C@@H](C)O)NC(=O)CNC(=O)[C@H](CC(=O)O)NC(=O)CNC(=O)[C@H](C)NC(=O)[C@H](Cc2ccccc2)NC(=O)[C@H]([C@@H](C)O)NC(=O)[C@H]([C@@H](C)O)NC(=O)[C@H](CCC(=O)O)NC(=O)[C@H](CC(C)C)NC(=O)[C@H](Cc2c[nH]cn2)NC(=O)[C@H]([C@@H](C)O)NC(=O)[C@H](CCC(N)=O)NC(=O)CNC(=O)[C@H]2CCCN2C(=O)[C@H](CCC(N)=O)NC(=O)[C@H]([C@@H](C)O)NC(=O)[C@H](C(C)C)NC(=O)[C@H](CCCNC(=N)N)NC1=O [compound 62] (cyclo(THLETTFAGDGTPKTIRVTQ[dP]GQ)) | 1.18 | 0.97 |  | 
7 | CC[C@H](C)[C@@H]1NC(=O)[C@H]([C@@H](C)O)NC(=O)[C@H](CCCCN)NC(=O)[C@@H]2CCCN2C(=O)[C@H]([C@@H](C)O)NC(=O)CNC(=O)[C@H](CC(=O)O)NC(=O)CNC(=O)[C@H](CCSC)NC(=O)[C@H](Cc2ccccc2)NC(=O)[C@H]([C@@H](C)O)NC(=O)[C@H]([C@@H](C)O)NC(=O)[C@H](CCC(=O)O)NC(=O)[C@H](CC(C)C)NC(=O)[C@H](Cc2c[nH]cn2)NC(=O)[C@H]([C@@H](C)O)NC(=O)[C@H](CCC(N)=O)NC(=O)CNC(=O)[C@H]2CCCN2C(=O)[C@H](CCC(N)=O)NC(=O)[C@H]([C@@H](C)O)NC(=O)[C@H](C(C)C)NC(=O)[C@H](CCCNC(=N)N)NC1=O [compound 37] | 2.51 | 2.00 |  | 
8 | CC[C@H](C)[C@@H]1NC(=O)[C@H]([C@@H](C)O)NC(=O)[C@H](CCCCN)NC(=O)[C@@H]2CCCN2C(=O)[C@H]([C@@H](C)O)NC(=O)CNC(=O)[C@H](CC(=O)O)NC(=O)CNC(=O)[C@H]([C@@H](C)O)NC(=O)[C@H](Cc2ccccc2)NC(=O)[C@H]([C@@H](C)O)NC(=O)[C@H]([C@@H](C)O)NC(=O)[C@H](CCC(=O)O)NC(=O)[C@H](CC(C)C)NC(=O)[C@H](Cc2c[nH]cn2)NC(=O)[C@H]([C@@H](C)O)NC(=O)[C@H](CCC(N)=O)NC(=O)CNC(=O)[C@H]2CCCN2C(=O)[C@H](CCC(N)=O)NC(=O)[C@H]([C@@H](C)O)N(C)C(=O)[C@H](C(C)C)NC(=O)[C@H](CCCNC(=N)N)NC1=O [SEQ ID NO: 101] |  |  | 0.6 ± 0.1 | 2
